Active and inactive are the calls of the source.
Columns and labels:
[1] = biological target: Glycogen synthase kinase-3 alpha (Homo sapiens, UniProt P49840); experiment: human GSK3 alpha kinase inhibition, dose response, selectivity assay for GSK3beta inhibitor project, biochemical, microfluidics, dry powder samples, set 2 (AID 623978); format: functional
[2] = biological target: Glycogen synthase kinase-3 beta (Homo sapiens, UniProt P49841); experiment: GSK3beta kinase inhibitors, dose response, biochemical, microfluidics, dry powder samples, set 2 (AID 623989); format: functional
Sequence of Glycogen synthase kinase-3 beta (P49841 whole entry): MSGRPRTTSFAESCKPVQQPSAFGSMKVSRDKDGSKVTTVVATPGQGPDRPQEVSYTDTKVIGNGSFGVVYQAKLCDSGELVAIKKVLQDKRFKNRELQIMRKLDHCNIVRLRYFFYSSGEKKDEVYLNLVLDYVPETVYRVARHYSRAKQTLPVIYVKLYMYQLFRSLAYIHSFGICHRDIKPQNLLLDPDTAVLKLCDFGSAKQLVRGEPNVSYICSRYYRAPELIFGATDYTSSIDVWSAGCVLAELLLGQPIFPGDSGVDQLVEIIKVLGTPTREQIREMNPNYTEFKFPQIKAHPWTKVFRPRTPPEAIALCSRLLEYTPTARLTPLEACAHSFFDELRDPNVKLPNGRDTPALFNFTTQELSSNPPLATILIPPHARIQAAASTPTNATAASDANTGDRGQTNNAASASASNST

[3] = Vero cell cytotoxicity, dose response, cytotoxicity control for M. tuberculosis growth inhibitor project, Vero cells, purified and synthesized compounds, set 4 (AID 504854); format: functional; details: Mycobacterium tuberculosis
[4] = Vero cell cytotoxicity, dose response, cytotoxicity control for M. tuberculosis growth inhibitor project, Vero cells, purified and synthesized compounds, set 5 (AID 504909); format: functional; details: Mycobacterium tuberculosis
[5] = biological target: T1, Apoptotic protease-activating factor 1 (Homo sapiens, UniProt O14727); experiment: SAR analysis of small molecule Activators of Apaf-1 in a Fluorescent assay - set 2.; format: functional; details: read-out: EC50_Mean
T1 sequence (O14727 whole entry): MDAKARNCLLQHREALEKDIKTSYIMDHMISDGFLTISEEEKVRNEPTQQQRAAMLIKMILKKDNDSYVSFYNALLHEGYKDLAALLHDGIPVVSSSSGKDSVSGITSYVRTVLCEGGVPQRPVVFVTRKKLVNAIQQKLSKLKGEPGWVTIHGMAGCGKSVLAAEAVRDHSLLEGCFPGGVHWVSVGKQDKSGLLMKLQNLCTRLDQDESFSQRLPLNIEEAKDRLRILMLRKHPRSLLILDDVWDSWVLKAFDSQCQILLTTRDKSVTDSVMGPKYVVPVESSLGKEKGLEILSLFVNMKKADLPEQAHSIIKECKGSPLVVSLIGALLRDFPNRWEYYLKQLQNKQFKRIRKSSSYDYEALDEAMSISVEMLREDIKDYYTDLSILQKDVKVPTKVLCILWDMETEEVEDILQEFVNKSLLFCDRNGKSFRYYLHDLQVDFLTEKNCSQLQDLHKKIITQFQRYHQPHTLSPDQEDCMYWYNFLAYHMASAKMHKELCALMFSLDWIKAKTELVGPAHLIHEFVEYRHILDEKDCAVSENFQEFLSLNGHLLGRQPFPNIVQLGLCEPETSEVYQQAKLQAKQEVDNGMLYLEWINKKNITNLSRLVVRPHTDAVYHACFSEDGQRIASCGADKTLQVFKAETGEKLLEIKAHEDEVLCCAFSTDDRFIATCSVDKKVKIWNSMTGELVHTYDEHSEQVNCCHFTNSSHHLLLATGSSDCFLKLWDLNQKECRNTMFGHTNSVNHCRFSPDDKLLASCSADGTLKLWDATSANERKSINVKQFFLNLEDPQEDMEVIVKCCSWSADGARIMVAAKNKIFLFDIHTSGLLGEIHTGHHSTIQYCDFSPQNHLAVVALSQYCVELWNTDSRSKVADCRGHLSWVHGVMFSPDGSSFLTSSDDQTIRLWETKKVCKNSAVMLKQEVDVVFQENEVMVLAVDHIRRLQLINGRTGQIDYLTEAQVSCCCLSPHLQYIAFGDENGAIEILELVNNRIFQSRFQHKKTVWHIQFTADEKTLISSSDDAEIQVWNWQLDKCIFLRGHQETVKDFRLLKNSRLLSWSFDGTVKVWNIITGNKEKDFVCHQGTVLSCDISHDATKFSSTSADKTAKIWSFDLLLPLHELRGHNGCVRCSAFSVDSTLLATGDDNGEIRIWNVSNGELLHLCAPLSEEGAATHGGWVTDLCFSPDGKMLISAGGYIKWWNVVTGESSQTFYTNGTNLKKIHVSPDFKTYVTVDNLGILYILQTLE

[6] = SAR analysis of small molecule activators of Apaf-1 using a LZ-Caspase-9/Caspase-3 Fluorescent Selectivity assay - Set 2.; format: functional; details: read-out: EC50_Mean
[7] = biological target: High affinity nerve growth factor receptor (Homo sapiens, UniProt P04629); format: functional;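 further: NTRK1 tested as one member of a kinome-wide profiling panel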
Sequence of High affinity nerve growth factor receptor (P04629 whole entry): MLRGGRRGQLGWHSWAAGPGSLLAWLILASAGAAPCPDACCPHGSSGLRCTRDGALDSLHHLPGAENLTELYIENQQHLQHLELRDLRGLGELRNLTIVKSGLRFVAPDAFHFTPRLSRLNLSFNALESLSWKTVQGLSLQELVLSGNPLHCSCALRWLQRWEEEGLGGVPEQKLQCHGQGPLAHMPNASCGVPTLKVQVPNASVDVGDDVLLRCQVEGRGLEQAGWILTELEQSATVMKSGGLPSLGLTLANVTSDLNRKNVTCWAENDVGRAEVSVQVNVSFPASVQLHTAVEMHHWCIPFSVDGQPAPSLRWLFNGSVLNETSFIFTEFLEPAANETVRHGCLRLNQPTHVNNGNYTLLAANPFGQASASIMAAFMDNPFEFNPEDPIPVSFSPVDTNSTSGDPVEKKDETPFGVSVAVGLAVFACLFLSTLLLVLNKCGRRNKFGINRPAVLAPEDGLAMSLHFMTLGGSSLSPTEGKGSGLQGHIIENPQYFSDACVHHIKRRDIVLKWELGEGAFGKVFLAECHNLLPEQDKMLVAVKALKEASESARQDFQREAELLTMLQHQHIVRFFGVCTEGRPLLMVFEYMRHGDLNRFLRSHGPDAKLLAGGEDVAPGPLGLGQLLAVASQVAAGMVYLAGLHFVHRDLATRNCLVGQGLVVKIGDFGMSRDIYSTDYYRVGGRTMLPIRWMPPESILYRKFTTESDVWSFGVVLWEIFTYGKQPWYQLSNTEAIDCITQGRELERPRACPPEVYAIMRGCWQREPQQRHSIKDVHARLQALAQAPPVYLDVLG

[8] = biological target: Cyclin-dependent kinase 19 (Homo sapiens, UniProt Q9BWU1); experiment: Navigating the Kinome. Panel member name: CDC2L6; format: functional
Sequence of Cyclin-dependent kinase 19 (Q9BWU1 whole entry): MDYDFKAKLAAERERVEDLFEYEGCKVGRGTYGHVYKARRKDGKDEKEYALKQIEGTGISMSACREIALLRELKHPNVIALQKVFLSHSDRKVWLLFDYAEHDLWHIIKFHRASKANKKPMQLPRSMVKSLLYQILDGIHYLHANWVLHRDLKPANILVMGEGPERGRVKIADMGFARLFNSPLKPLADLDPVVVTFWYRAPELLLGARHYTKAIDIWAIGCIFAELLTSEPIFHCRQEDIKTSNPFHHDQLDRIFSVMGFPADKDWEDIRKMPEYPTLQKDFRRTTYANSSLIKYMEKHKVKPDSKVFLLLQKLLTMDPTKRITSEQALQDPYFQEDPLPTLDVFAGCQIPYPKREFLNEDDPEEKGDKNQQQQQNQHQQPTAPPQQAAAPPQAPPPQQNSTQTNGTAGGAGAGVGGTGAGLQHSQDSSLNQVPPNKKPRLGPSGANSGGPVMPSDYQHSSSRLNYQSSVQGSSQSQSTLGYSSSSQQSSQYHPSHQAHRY

[9] = biological target: T1, Apoptotic protease-activating factor 1; experiment: SAR analysis of small molecule inhibitors of Apaf-1 in a Fluorescent assay.; format: functional; details: read-out: IC50_Mean
[10] = biological target: Beta-lactamase (Pseudomonas aeruginosa, UniProt Q79MP6);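 further: biochemical dose-response test of metallo-beta-lactamase enzyme inhibition, read out by epi-absorbance; purified recombinant IMP-1 metallo-beta-lactamase with nitrocefin as substrate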
Sequence of Beta-lactamase (Pseudomonas aeruginosa, UniProt Q79MP6) (Q79MP6 whole entry): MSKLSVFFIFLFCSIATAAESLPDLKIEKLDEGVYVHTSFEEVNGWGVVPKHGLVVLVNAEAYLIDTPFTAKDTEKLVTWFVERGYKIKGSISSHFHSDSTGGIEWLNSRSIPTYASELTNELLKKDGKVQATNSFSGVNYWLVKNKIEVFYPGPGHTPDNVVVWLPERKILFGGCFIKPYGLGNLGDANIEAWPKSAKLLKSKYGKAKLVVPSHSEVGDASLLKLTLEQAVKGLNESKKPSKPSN

[11] = biological target: T2, Ubiquitin-conjugating enzyme E2 N (Homo sapiens, UniProt P61088); format: functional
T2 sequence (P61088 whole entry): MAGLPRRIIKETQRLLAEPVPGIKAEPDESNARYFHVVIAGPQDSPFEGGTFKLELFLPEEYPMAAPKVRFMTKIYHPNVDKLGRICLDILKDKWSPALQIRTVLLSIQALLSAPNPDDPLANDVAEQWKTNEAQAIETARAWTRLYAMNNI

[12] = biological target: T1, Apoptotic protease-activating factor 1; format: functional
[13] = biological target: T3, Bcl-2-related protein A1 (Mus musculus, UniProt Q07440); format: functional;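 further: confirmatory dose–response counterscreen on Bfl-1, used to check hits from a UBC13 polyubiquitin inhibitor campaign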
T3 sequence (Q07440 whole entry): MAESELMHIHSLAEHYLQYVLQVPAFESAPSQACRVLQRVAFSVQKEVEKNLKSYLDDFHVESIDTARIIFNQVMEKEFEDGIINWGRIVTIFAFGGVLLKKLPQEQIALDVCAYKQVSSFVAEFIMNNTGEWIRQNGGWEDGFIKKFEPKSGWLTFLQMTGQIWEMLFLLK

[14] = biological target: Beta-lactamase (Salmonella choleraesuis (strain SC-B67), UniProt Q5J463)
Sequence of Beta-lactamase (Salmonella choleraesuis (strain SC-B67), UniProt Q5J463) (Q5J463 whole entry): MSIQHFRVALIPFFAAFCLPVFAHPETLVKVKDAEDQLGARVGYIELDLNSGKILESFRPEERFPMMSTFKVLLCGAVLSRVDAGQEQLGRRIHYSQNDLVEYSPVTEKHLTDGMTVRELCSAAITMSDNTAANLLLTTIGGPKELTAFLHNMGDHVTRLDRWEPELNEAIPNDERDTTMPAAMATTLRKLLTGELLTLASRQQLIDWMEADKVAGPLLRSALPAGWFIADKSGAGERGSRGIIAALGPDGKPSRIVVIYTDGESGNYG

[15] = biological target: E3 ubiquitin-protein ligase XIAP (Homo sapiens, UniProt P98170); experiment: Counter Screen using XIAP-Bir3 for Chemical Antagonists of Bir1/2 domains of IAP-family anti-apoptotic proteins. [Related pubchem assays (depositor defined):AID1018, AID1449, AID1514, AID1638, AID1749, AID1750, AID488957, AID488963]
Sequence of E3 ubiquitin-protein ligase XIAP (P98170 whole entry): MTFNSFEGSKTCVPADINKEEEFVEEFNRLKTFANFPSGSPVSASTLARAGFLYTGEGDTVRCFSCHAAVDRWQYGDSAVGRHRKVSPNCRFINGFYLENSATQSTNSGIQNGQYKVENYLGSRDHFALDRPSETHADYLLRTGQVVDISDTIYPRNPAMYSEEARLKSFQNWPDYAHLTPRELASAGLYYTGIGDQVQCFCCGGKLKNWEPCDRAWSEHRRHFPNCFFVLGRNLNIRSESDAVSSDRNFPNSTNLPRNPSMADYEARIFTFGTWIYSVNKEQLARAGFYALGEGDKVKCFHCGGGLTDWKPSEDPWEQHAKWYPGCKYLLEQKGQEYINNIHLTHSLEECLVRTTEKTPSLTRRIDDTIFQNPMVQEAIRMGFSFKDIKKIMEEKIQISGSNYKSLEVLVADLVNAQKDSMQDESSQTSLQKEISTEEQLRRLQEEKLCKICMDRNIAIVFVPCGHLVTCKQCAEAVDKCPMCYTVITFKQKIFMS

[16] = biological target: T2, Ubiquitin-conjugating enzyme E2 N; format: functional; remark: listed apart in the source
[17] = biological target: Beta Lactamase (Pseudomonas aeruginosa, UniProt Q932Y6);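 further: confirmatory high-throughput screen measuring VIM-2 metallo-beta-lactamase inhibition by epi-absorbance in dose response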
Sequence of Beta Lactamase (Q932Y6 whole entry): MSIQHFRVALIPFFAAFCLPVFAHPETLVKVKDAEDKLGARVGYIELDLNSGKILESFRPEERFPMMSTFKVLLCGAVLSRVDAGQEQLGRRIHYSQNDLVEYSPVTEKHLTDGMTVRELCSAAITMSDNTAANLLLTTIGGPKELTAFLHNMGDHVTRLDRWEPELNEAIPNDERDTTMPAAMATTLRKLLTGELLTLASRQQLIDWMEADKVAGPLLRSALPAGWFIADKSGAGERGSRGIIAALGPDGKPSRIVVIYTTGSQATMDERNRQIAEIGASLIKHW

[18] = biological target: T4, Melanin-concentrating hormone receptor 1 (Homo sapiens, UniProt Q99705); experiment: Late-stage fluorescence-based counterscreen for antagonists of the G-protein coupled receptor 7 (GPR7): cell-based dose response assay to identify antagonists of the melanin-concentrating hormone receptor 1 (MCHR1) Set 5.; format: functional
T4 sequence (Q99705 whole entry): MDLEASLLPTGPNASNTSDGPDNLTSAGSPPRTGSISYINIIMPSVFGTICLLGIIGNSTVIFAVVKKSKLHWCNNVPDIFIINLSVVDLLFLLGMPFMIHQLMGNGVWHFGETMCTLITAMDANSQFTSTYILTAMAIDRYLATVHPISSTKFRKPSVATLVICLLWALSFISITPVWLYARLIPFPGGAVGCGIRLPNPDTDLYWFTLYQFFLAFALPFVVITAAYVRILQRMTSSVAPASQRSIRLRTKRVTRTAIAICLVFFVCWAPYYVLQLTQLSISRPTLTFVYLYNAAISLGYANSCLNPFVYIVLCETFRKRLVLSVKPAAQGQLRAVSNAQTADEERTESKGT

[19] = biological target: T5, Neuropeptides B/W receptor type 1 (Homo sapiens, UniProt P48145); experiment: GPR7 antagonist potency, late-stage follow-up, cell-based, fluorescence, dose response, set 5 (AID 588566); format: functional
T5 sequence (P48145 whole entry): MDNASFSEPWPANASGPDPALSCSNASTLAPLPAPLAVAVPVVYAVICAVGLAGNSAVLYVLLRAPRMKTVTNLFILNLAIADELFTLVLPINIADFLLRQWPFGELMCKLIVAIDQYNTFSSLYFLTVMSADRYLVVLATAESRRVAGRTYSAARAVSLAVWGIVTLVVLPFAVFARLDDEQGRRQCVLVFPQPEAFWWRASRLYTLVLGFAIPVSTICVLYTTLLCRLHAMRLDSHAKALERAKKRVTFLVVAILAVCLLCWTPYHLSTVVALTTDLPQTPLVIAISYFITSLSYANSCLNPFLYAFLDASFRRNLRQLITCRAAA

[20] = biological target: T5, Neuropeptides B/W receptor type 1; experiment: GPR7 antagonist potency, late-stage follow-up, cell-based, fluorescence, dose response, set 6 (AID 588583); format: functional
[21] = biological target: T4, Melanin-concentrating hormone receptor 1; experiment: Late-stage fluorescence-based counterscreen for antagonists of the G-protein coupled receptor 7 (GPR7): cell-based dose response assay to identify antagonists of the melanin-concentrating hormone receptor 1 (MCHR1) Set 6.; format: functional

Sequence of Glycogen synthase kinase-3 alpha (P49840 whole entry): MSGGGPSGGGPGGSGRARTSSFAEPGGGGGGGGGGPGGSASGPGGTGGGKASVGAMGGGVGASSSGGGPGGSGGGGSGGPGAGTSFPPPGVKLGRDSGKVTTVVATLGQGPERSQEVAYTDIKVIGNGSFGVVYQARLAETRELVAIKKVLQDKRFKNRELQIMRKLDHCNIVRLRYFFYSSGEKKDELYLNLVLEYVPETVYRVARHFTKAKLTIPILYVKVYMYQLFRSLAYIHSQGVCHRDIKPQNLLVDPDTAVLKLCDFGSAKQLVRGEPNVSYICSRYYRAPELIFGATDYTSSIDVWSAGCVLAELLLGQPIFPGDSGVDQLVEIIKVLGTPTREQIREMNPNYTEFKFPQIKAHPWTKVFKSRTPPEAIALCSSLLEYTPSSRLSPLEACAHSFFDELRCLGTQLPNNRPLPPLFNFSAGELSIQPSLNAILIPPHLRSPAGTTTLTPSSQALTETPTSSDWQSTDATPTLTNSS

Structure (SMILES): CCOc1ccccc1/C=N/NC(=O)c1nnn(-c2nonc2N)c1CN1CCCCCC1
- AC50 [1]: 21.9 nM (active)
- AC50 [2]: < 16 nM (active)

Structure (SMILES): Cc1ccc(NC(=O)CSc2nc3ccccc3c(=O)[nH]2)cc1Cl
- CC50 [3]: > 100 µM (active)
- CC50 [4]: > 100 µM (active)

Structure (SMILES): O=C(O)C1CC(c2ccccc2Cl)=NO1 (stereo unspecified)
- EC50 [5]: > 100 µM (inactive)
- EC50 [6]: > 100 µM (inactive)

Structure (SMILES): O=C(Nc1cccc(C(F)(F)F)c1)Nc1cc(Cl)ccc1O
- Ki [7]: 10 µM (active)
- Ki [8]: 20 µM (active)

Structure (SMILES): CCN(CC)CCOC(=O)c1ccc(N/C=C(/C#N)c2nc(-c3cc4ccccc4oc3=O)cs2)cc1
- IC50 [9]: 3.09 µM (active)
- IC50 [10]: > 59.6 µM (inactive)
- IC50 [11]: 3.74 µM (active)
- IC50 [12]: 4.12 µM (active)
- IC50 [13]: 550 nM (active)
- IC50 [14]: > 59.6 µM (inactive)
- IC50 [15]: > 20 µM (inactive)
- IC50 [16]: 3.5 µM (active)
- IC50 [17]: > 59.6 µM (inactive)

Structure (SMILES): COc1ccc(Oc2c(Cl)c(C(=O)O)nn(-c3ccc(C(C)C)cc3)c2=O)cc1
- IC50 [18]: > 20 µM (inactive)
- IC50 [19]: > 20 µM (inactive)

Structure (SMILES): N#CC(c1ccc(F)cc1Cl)c1c(Cl)cnn(Cc2cccc3ccccc23)c1=O (stereo unspecified)
- IC50 [20]: 1.71 µM (active)
- IC50 [21]: 1.71 µM (active)
